In ChEMBL document CHEMBL3430912, “GSK Tres Cantos Anti-Kinetoplastid Screening (TCAKS) Data”:

Experiments:
[1] = target: Sterol 14-alpha demethylase (Trypanosoma cruzi (strain CL Brener), UniProt Q7Z1V1); assay: GSK_TCAKS: pIC50 CYP51 from Trypanosoma cruzi.; type: functional
[2] = test system: Trypanosoma brucei brucei; assay: GSK_TCAKS: pIC50 Trypanosoma brucei viability assay using luminiscence. Assay plates (1536-well) were prepared. T. brucei cultures were harvested and counted in a CASY cell counter. A parasite suspension was prepared at a final concentration of 5 * 10^4 cells/mL in complete HMI9 medium and 6uL was dispensed to all wells containing compounds using a Multidrop Combi dispenser. 6uL of HMI9 media with 0.4% DMSO were dispensed to control columns. Plates were incubated for 24 h at 37C, 5% CO2 then tempered for 10 min at room temperature. ATP content was quantified by adding 4 uL of CellTiter-Glo Reagent (Promega) according to the manufacturer's instructions. Luminescence was measured using a ViewLux.; type: functional, organism-based; settings: Lister 427, CASY
Trypanosoma cruzi [3] = assay: (§1) GSK_TCAKS: pIC50 H2C9 Imaging: H9c2 Host Cardiomyocytes. […] Cells were then washed once with PBS before infection. T. cruzi trypomastigotes, collected at days 5 to 8 after infection from LLC-MK2 parasite infected cultures, were allowed to swim out for 4h at 37C from a centrifuged pellet (2,500 rpm/10 min/room temperature). Trypomastigotes were then collected and counted in a CASY Cell Counter. Trypomastigotes, in supplemented DMEM, were added to H9c2 cultures in a multiplicity of infection of 1 and incubated for 18 h. Cells were washed once with PBS before incubation of the infected H9c2 monolayer with trypsin (Life-Technologies) to detach cells from the flask. Cells were counted in a CASY Cell Counter using a 150 um capillary and their density set at 5 * 10^4 cells per mL in supplemented assay DMEM. Infected H9c2 were dispensed into 384-well poly-lysine coated assay plates at 50uL per well using a Multidrop Combi dispenser. After seeding them, the plates were incubated at 37C, 5% CO2 for 72h. Cultures were then fixed and stained by addition of 50 uL of a solution containing 8% formaldehyde and 4 uM DRAQ5 DNA dye (BioStatus, UK) per well. […] Five images were collected per well for reliable statistical analysis. Automated image analysis was performed with a script developed on Acapella High Content Imaging and Analysis Software (PerkinElmer). Output: Number of H9c2 Host Cardiomyocytes nuclei to determine drug-related cytotoxicity.; type: functional, organism-based, Rattus norvegicus; settings: H9c2, 4 h
Leishmania donovani [4] = assay: GSK_TCAKS: pIC50 Leishmania donovani viability assay using fluorescence intensity. Assay plates (1536-well) were prepared by adding 30nL per well of compound. For single shot assay, the final compound concentration was 5uM. […] Briefly, eGFP LdBOB axenic amastigotes were harvested, fixed and counted in a CASY cell counter (Roche-Applied Science). A final concentration of 1.5 * 10^5 cells per well were prepared in amastigote media containing 500 U/mL penicillin/streptomycin (Invitrogen) and 6uL was dispensed to each experimental well using a Multidrop Combi dispenser (Thermo Scientific). 6uL of assay media was dispensed to control columns used as reference for 100% compound response. Following incubation for 72 h at 37C, 5% CO2, 2 uL of resazurin was added to each well at a final concentration of 0.5 mM in phosphate buffered saline (PBS) with IGEPAL (Sigma-Aldrich), 0.05% (v/v).; type: functional, organism-based
Leishmania donovani [5] = assay: GSK_TCAKS: pIC50 Leishmania donovani Imaging: Amastigotes/Macrophages. Assay plates (384-well) were prepared by adding 250nL of compound to each well. For single shot assay, the final compound concentration was 5 uM. […] Automated image analysis was performed with a script developed on Acapella High Content Imaging and Analysis Software (PerkinElmer). Output: Average number of amastigotes per macrophage cell were reported for each well.; type: functional, organism-based, Homo sapiens; settings: THP-1
Trypanosoma cruzi [6] = assay: as §1, with “Trypanosoma cruzi” for “H2C9”, “Infected Cells.” for “H9c2 Host Cardiomyocytes.”, “percentage” for “Number”, “infected cells per well as a second infection marker.” for “H9c2 Host Cardiomyocytes nuclei to determine drug-related cytotoxicity.”; type: functional, organism-based, Rattus norvegicus; settings: H9c2, 4 h
[7] = GSK_TCAKS: pIC50 HepG2 human cell line viability assay using luminiscence. […] Seeding density was checked to ensure that new mono-layers were not more than 50% confluent at the time of harvesting. Cell suspension was added to 500 mL of the same medium at a final density of 1.2 * 10^5 cells/mL. This cell suspension was dispensed (25 uL, 3000 cells per well) into 384-well clear-bottom plates using a Multidrop Combi dispenser. Prior to addition of the cell suspension, the screening compounds (250 nL) were pre-dispensed into the plates with an Echo liquid handler. Plates were incubated for 48 h at 37C, 5% CO2. After incubation, plates equilibrated at room temperature for 30 min before proceeding to develop the luminescent signal. The signal developer, CellTiter-Glo Reagent, was allowed to equilibrate at room temperature for 30 min and added to the plates (25uL per well) using a Multidrop Combi dispenser. Plates were left for 10 min at room temperature for stabilization and then read using a ViewLux.; type: toxicity, cell-based
NIH3T3 = assay: GSK_TCAKS: pIC50 NIH 3T3 cell line viability assay using luminiscence. Tissue culture surface treated assay plates (1536-well) were used. […] The 100% cells survival control was determined exposing the host-cells to a 0.5% DMSO concentration, whereas the 100% toxicity control was achieved by seeding the cells in presence of Amphotericin B at 50uM. Plates were incubated for four days at 37C, 5% CO2. The assay readout was developed by addition of 5uL of CellTiter-Glo Reagent following the manufacturer's instructions. Luminiscence was measured using a ViewLux.; type: functional, cell-based; settings: Mus musculus, NIH3T3, 96 h
Trypanosoma cruzi [8] = assay: as §1, with “Trypanosoma cruzi” for “H2C9”, “Amastigotes/Cell.” for “H9c2 Host Cardiomyocytes.”, “number” for “Number”, “amastigotes per cell as infection level measurement.” for “H9c2 Host Cardiomyocytes nuclei to determine drug-related cytotoxicity.”; type: functional, organism-based, Rattus norvegicus; settings: H9c2, 4 h
[9] = test system: Trypanosoma brucei brucei; assay: GSK_TCAKS: pIC50 Trypanosoma brucei viability assay using fluorescence intensity. Assay plates (1536-well) were prepared by dispensing 25nL of compound solution per well using an Echo acoustic dispenser (Labcyte).; type: functional, organism-based; settings: Lister 427, 2 h
Leishmania donovani [10] = assay: GSK_TCAKS: pIC50 Leishmania donovani Imaging: THP-1 Host Macrophages. Assay plates (384-well) were prepared by adding 250nL of compound to each well. For single shot assay, the final compound concentration was 5 uM. […] Automated image analysis was performed with a script developed on Acapella High Content Imaging and Analysis Software (PerkinElmer). Output: THP-1 cell count were reported for each well.; type: functional, organism-based, Homo sapiens
Leishmania donovani [11] = assay: GSK_TCAKS: pIC50 Leishmania donovani Imaging: Infected Macrophages. Assay plates (384-well) were prepared by adding 250nL of compound to each well. For single shot assay, the final compound concentration was 5 uM. […] Automated image analysis was performed with a script developed on Acapella High Content Imaging and Analysis Software (PerkinElmer). Output: Percent of infected macrophage cells were reported for each well.; type: functional, organism-based, Homo sapiens; settings: THP-1
Trypanosoma cruzi [12] = assay: GSK_TCAKS: pIC50 Trypanosoma cruzi viability assay using beta-GAL activity. This assay was run at single shot at 5uM compound concentration per well. The biological reagents consisted of NIH-3T3 host cells and trypomastigotes parasitic cells; both cell types were set to a 3.3 * 10^5 cells/mL dilution in assay DMEM by means of a CASY cell counter device using a 60um capillary. 6 uL of the mixture were dispensed per well (about 1 * 10^3 host-cells and 1 * 10^3 parasites) with a Multidrop Combi dispenser. […] In all wells, the percentage of DMSO never exceeded 0.5%. Plates incubated for four days at 37C, 5% CO2. The substrate used for the assay fluorescence intensity (FLINT) readout was resorufin-beta-D-galactopiranoside (Sigma-Aldrich) at 5uM per well. It was diluted in PBS supplemented with the soft detergent Igepal (Fluka).; type: functional, organism-based, Mus musculus; settings: Tulahuen, NIH3T3

Chain of Sterol 14-alpha demethylase (Q7Z1V1 whole entry): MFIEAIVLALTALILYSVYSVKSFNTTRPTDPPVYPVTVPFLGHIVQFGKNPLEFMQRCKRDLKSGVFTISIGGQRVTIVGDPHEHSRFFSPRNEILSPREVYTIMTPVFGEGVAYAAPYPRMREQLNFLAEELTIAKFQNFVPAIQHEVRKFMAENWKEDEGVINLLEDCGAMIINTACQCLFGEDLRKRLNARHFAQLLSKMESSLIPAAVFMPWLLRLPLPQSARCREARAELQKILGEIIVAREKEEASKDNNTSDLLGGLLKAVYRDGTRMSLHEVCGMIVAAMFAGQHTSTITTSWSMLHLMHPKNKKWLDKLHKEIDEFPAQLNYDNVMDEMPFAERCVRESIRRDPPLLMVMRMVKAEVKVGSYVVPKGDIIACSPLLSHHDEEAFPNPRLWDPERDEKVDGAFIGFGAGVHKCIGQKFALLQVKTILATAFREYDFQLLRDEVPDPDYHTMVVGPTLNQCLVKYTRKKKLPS

SMILES | IC50 [1] [µM] | IC50 [2] [µM] | IC50 (Trypanosoma cruzi [3]) [µM] | IC50 (Leishmania donovani [4]) [µM] | IC50 (Leishmania donovani [5]) [µM] | IC50 (Trypanosoma cruzi [6]) [µM] | IC50 at 48 h [7] [µM] | IC50 (NIH3T3) [µM] | IC50 (Trypanosoma cruzi [8]) [µM] | IC50 [9] [µM] | IC50 (Leishmania donovani [10]) [µM] | IC50 (Leishmania donovani [11]) [µM] | IC50 (Trypanosoma cruzi [12]) [µM]
COc1ccccc1-c1c(C)[nH]c2nc(N)nc(C)c12 | > 100 | > 39.8 | > 50.1 | 12.6 | 15.8 | 0.251 | > 100 | > 50.1 | 0.126 | 25.1 | > 50.1 | 25.1 | 0.178
CS(=O)(=O)N[C@H]1CC[C@@H](Oc2cc3cnccc3cc2-c2ccsc2)CC1 | 0.0251 | > 39.8 | > 50.1 | 31.6 | 20 | 0.158 | 63.1 | 15.8 | 0.1 | 15.8 | 15.8 | 50.1 | 0.126
N#Cc1cc([N+](=O)[O-])ccc1NC1CCCCCC1 | > 100 | 3.16 | > 50.1 | > 50.1 | > 50.1 | 2 | > 100 | > 50.1 | 1.26 | 2.51 | > 50.1 | > 50.1 | 2.51
CN(Cc1ccccc1)Cc1nnnn1C1CCN(Cc2ccc(-n3ccnc3)cc2)CC1 | 0.0501 | > 39.8 | > 50.1 | > 50.1 | > 50.1 | 0.316 | > 100 | 3.98 | 0.251 | > 39.8 | 31.6 | > 50.1 | 0.398
Cc1cccc(NS(=O)(=O)c2cnc3sc(C)cn3c2=O)c1 | > 100 | > 39.8 | 6.31 | > 50.1 | 5.01 | 2 | > 100 | > 50.1 | 1 | > 39.8 | > 50.1 | > 50.1 | 1.26
COc1ccc(S(=O)(=O)NCc2ccc(-c3ccc(CN(C)CCO)cc3)cc2)cc1 | 15.8 | 3.16 | > 50.1 | > 50.1 | 20 | 2.51 | 50.1 | 15.8 | 1.26 | 3.16 | 20 | 15.8 | 0.0398
O=C(COc1ncnc2cc([N+](=O)[O-])ccc12)NC(=O)NC1CCCCC1 | > 100 | > 39.8 | > 50.1 | > 50.1 | > 50.1 | 1 | > 100 | > 50.1 | 0.501 | 6.31 | > 50.1 | > 50.1 | 1.26
COc1ccc(C2CC(c3ccccc3Cl)=NN2C(=O)CNC(=O)C2CCC2)cc1 (stereo not given) | 50.1 | 0.501 | > 50.1 | > 50.1 | > 50.1 | 1.58 | > 100 | 31.6 | 1 | 0.316 | > 50.1 | > 50.1 | 2.82
CN(C)c1ncc(-c2cncn2CCOc2ccc(Cl)cc2)cn1 | 0.0501 | > 39.8 | > 50.1 | > 50.1 | > 50.1 | 0.251 | > 100 | 39.8 | 0.2 | > 39.8 | > 50.1 | > 50.1 | 0.224
Clc1ccc(CN2CCN(C3=NCCN3)CC2)cc1Cl | > 100 | > 39.8 | > 50.1 | > 50.1 | > 50.1 | 10 | 63.1 | 39.8 | 1 | > 39.8 | > 50.1 | > 50.1 | 1.26
